Values of other authors as cited in patent US20070203026A1, “Methods for controlling bermudagrass, bermudagrass hybrids and other weedy monocot and dicot species” (TurfEcosystems, LLC, priority 2006, published 2007).

Experiments:
[1] = system: fairway crested wheatgrass; settings: saturated soil paste extract data
[2] = system: tall fescue; settings: saturated soil paste extract data
[3] = system: seashore paspalum; settings: ocean level chlorides
[4] = system: crested wheatgrass; settings: saturated soil paste extract data
[5] = system: perennial ryegrass; settings: saturated soil paste extract data
[6] = system: bermudagrass; settings: saturated soil paste extract data

Cl [chloride]
maximum soil chloride concentration threshold [1]: about 2625 ppm
maximum soil chloride concentration threshold [2]: about 1400 ppm
chlorides withstood (salinity tolerance) [3]: ~19,000 ppm
maximum soil chloride concentration threshold [4]: about 1050 ppm
maximum soil chloride concentration threshold [5]: about 1025 ppm
maximum soil chloride concentration threshold [6]: about 2450 ppm
